The subject of one series is plasmid DNA. Put plainly: Composite peptide-DNA hydrogels: DNA loading, encapsulation and release. The format is physicochemical. As to conditions: for amount of DNA that can be incorporated into the composite hydrogel: plasmid DNA loading. The method, then: Various peptides (AcLD6, i.e. Ac-LIVAGD, SEQ ID NO: 65; AcLK6, i.e. Ac-LIVAGK, SEQ ID NO: 66; AcLS6, i.e. Ac-LIVAGS, SEQ ID NO: 67) were used to encapsulate plasmid DNA, forming composite peptide-DNA hydrogels (A). […] When the composite hydrogels were incubated with DNAse, digested DNA fragments were not observed, compared to the naked DNA control. […] Potential applications include synthetic cell culture substrates that mediate sustained DNA, mRNA, siRNA and short hairpin RNA delivery (C).
The peptide sequence (particularly the polar head group) and concentration plays a significant role in determining the maximum amount of DNA that can be incorporated into the composite hydrogel.
Even after 10 days, at least 80% of the DNA loaded remained in composite hydrogel. In particular, the Ac-LIVAGK (L)-DNA hydrogel retained 95% of the DNA added. The release of the nucleic acid can potentially be modulated by the peptide composition.

The nature of series [1]: Pilot study with 4 mice (10 days): blood cell counts after hydrogel implant. The series is classed as in vivo. Particulars: 30 μL gel implant. The source says:
There were no behavioral changes or weight loss following implantation for up to 2 months, and there was no significant difference in red or white blood cell counts or blood chemistry (liver and kidney function) between mice implanted with hydrogels and sham operated mice.

For series [2], the system named is human derived adipose stem cells. Put plainly: Subcutaneous implantation of hydrogels seeded with human derived adipose stem cells. The format is in vivo. As to conditions: nude mice, after 45 days. The text has this:
FIG. 16. In vivo scaffold for adipose tissue regeneration Fat pad observed under the skeletal muscle layer in the region of the human adipose stem cell (hASC) implant 45 days post-implantation (A-C). The transplanted cells have the appearance of normal mature adipose tissue (D)—adipocytes with dark nuclei at edge, cells filled with fat.

A short description of series [3]: Peptide stability studies (TGA, 1H-NMR, HPLC-MS after UV or autoclave treatment). The format is physicochemical. As to conditions: for decomposition by 1H-NMR: UV treated (2 h, 254 nm) or autoclaved (30 min, 120° C.); for degradation by HPLC-MS: following UV and autoclave treatment.
Setting [4] is: SCID mice, listed as Ac-LIVAGK (L) gel.

“And” between values parts separate entries of the source, which are not always exact repeats. Equal values may be shown once. Where a SMILES comes first, the peptide text is derived from it. Where no end group is shown, it is not given here.

`CC[C@H](C)[C@H](NC(=O)[C@H](CC(C)C)NC(C)=O)C(=O)N[C@H](C(=O)N[C@@H](C)C(=O)NCC(=O)N[C@@H](CCCCN)C(=O)O)C(C)C` [AcLK6, Ac-LIVAGK] (Ac-LIVAGK-OH): in the series on plasmid DNA (composite peptide-DNA hydrogel), the “encapsulating and trapping of plasmid DNA” value is “extremely efficient in encapsulating and trapping the DNA”. Also, the “release of the DNA” value in the series with plasmid DNA (over the course of several days) is listed as “minimal release of the DNA”. The “amount of DNA that can be incorporated into the composite hydrogel” value with plasmid DNA is on record as “could integrate the highest concentration of DNA”. In series [1] (setting [4]), the erythrocytes is 9.29 M/uL and 11.33 M/uL; the lymphocytes was 0.88 K/uL and 0.9 K/uL; the monocytes is 0.22 K/uL and 0.12 K/uL; the thrombocytes was 0.607 M/uL and 0.978 M/uL. In series [1] (normal mouse), this compound displayed a basophils of 0.02 K/uL, an eosinophils of 0.11 K/uL, an erythrocytes of 10.65 M/uL and a lymphocytes of 3.76 K/uL. For the same compound, in series [1] (normal mouse), the monocytes is reported as 0.42 K/uL, the neutrophils is on record as 1.6 K/uL and the thrombocytes is listed as 0.833 M/uL. In addition, the “adipose tissue formation under the implant site” value in series [2] is “formation of fat pads”.

With Ac-IVD (Ac-Ile-Val-Asp) [AcID3], in series [3], the “decomposition by 1H-NMR” value is on record as “do not decompose” and the “degradation by HPLC-MS” value is “minimal”.

Take Ac-LIVAGD [AcLD6]: in series [3], the “decomposition by 1H-NMR” value is recorded as “do not decompose” and the “degradation by HPLC-MS” value was “minimal”. In addition, the “amount of DNA that can be incorporated into the composite hydrogel” value in the series on plasmid DNA was “lowest threshold for DNA loading”.

The values above are taken from US10449257B2, “Self-assembled composite ultrasmall peptide-polymer hydrogels” (Agency for Science, Technology and Research, priority 2011, dated 2019).
